From patent publication US9137992B2, “Spinosyn-producing polyketide synthases” (DOW AGROSCIENCES LLC, priority 2002, dated 2015)

Assays:
[1] = test system: beet armyworm (Spodoptera exigua) larvae; experiment: Topical assay on beet armyworm larvae; format: in vivo; conditions: acetone solution, 1 microg/larva, six larvae, mortality at end of two-day period, 21° C., 60% RH
Procedure: (§1) Biological activity of the compounds of the invention was shown by a topical assay in which the compound was applied to laboratory-reared larvae (mean weight 22 mg) at the rate of 1 microg/larva. Each compound was applied, in an acetone solution (1 mg/mL), along the dorsum of six tobacco budworm (Heliothis virescens) larvae and six beet armyworm (Spodoptera exigua) larvae. Treated larvae were then held for two days at 21° C., 60% RH in six-well plastic culture plates. Larvae were each supplied with a 1 cm^3 of agar-based Lepidoptera diet for sustenance during the two-day post-exposure interval. Percent mortality was determined at the end of a two-day period (Table 18).

[2] = test system: tobacco budworm (Heliothis virescens) larvae; experiment: Topical assay on tobacco budworm larvae; format: in vivo; conditions: acetone solution, 1 microg/larva, six larvae, mortality at end of two-day period, 21° C., 60% RH
Procedure: as §1

[3] = test system: insect; experiment: Insect control assays; conditions: in vivo

Row | SMILES | Beet Armyworm Mortality (%) [1] | Tobacco Budworm Mortality (%) [2] | activity in insect control assays [3]
1 | CO[C@@H]1[C@@H](OC)[C@H](C)O[C@@H](O[C@H]2C[C@H]3[C@@H]4C=C5C(=O)[C@H](C)[C@@H](O[C@H]6CC[C@H](N(C)C)[C@@H](C)O6)CCC[C@@H](C6CCC6)OC(=O)C[C@H]5[C@@H]4C=C[C@@H]3C2)[C@@H]1OC [Compound 3, 21-desethyl-21-cyclobutyl spinosyn A] | 83% | 83% | 
2 | CCC[C@H]1CCC[C@H](O[C@H]2CC[C@H](N(C)C)[C@@H](C)O2)[C@@H](C)C(=O)C2=C[C@@H]3[C@@H](C=C[C@@H]4C[C@@H](O[C@@H]5O[C@@H](C)[C@H](OC)[C@@H](OC)[C@H]5OC)C[C@@H]34)[C@@H]2CC(=O)O1 [21-desethyl-21-n-propyl spinosyn A] |  |  | active
3 | CCC[C@H]1CCC[C@H](O[C@H]2CC[C@H](N(C)C)[C@@H](C)O2)[C@@H](C)C(=O)C2=C[C@@H]3[C@@H](C=C[C@@H]4C[C@@H](O[C@@H]5O[C@@H](C)[C@H](OC)[C@@H](OC)[C@H]5OC)C[C@@H]34)[C@@H]2CC(=O)O1 [Compound 23, 21-desethyl-21-n-propyl spinosyn A] | 100% | 100% | 
4 | CO[C@@H]1[C@@H](OC)[C@H](C)O[C@@H](O[C@@H]2C[C@H]3CC[C@@H]4[C@@H](C=C5C(=O)[C@H](C)[C@@H](O[C@H]6CC[C@H](N(C)C)[C@@H](C)O6)CCC[C@H](C6CCC6)OC(=O)C[C@H]54)[C@@H]3C2)[C@@H]1OC [Compound 8, 5,6-dihydro-21-desethyl-21-cyclobutyl spinosyn A] | 83% | 100% | 
5 | CO[C@@H]1[C@@H](OC)[C@H](C)O[C@@H](O[C@H]2C[C@H]3[C@@H]4C=C5C(=O)[C@H](C)[C@@H](O[C@H]6CC[C@H](N(C)C)[C@@H](C)O6)CCC[C@@H](C6CC6)OC(=O)C[C@H]5[C@@H]4C=C[C@@H]3C2)[C@@H]1OC [Compound 1, 21-desethyl-21-cyclopropyl spinosyn A] | 33% | 100% | 
6 | CO[C@@H]1[C@@H](OC)[C@H](C)O[C@@H](O[C@H]2C[C@H]3[C@@H]4C=C5C(=O)[C@H](C)[C@@H](O[C@H]6CC[C@H](N(C)C)[C@@H](C)O6)CCC[C@H](C6CCC6)OC(=O)C[C@H]5[C@@H]4C=C(C)[C@@H]3C2)[C@@H]1OC [Compound 4, 21-desethyl-21-cyclobutyl spinosyn D] | 83% | 100% | 
7 | CO[C@@H]1[C@@H](OC)[C@H](C)O[C@@H](O[C@H]2C[C@H]3[C@@H]4C=C5C(=O)[C@H](C)[C@@H](O[C@H]6CC[C@H](N(C)C)[C@@H](C)O6)CCC[C@H](C(C)C)OC(=O)C[C@H]5[C@@H]4C=C[C@@H]3C2)[C@@H]1OC [Compound 9, 21-desethyl-21-isopropyl spinosyn A] | 100% | 100% | active
